Key:
[1] = molecular target: T1, human TrxR1 Sec498Cys mutant enzyme (Homo sapiens, UniProt Q16881, U648C); test: DTNB reduction assay with recombinant mutant enzyme; type: biochemical
T1 sequence (Q16881 151-649 U648C): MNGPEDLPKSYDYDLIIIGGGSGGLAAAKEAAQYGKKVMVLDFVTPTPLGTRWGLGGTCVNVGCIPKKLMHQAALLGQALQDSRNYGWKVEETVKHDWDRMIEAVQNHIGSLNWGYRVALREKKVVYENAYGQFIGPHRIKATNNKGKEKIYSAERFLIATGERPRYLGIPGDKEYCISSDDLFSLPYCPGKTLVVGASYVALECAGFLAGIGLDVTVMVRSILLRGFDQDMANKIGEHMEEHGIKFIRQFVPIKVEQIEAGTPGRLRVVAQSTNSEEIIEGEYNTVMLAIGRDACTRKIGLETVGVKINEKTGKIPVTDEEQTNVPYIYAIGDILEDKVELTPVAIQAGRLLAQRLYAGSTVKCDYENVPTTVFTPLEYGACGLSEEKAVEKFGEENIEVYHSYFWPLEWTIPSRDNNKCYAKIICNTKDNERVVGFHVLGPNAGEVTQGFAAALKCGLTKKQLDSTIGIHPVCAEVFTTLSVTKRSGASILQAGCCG

[2] = molecular target: T2, thioredoxin reductase 1 (TrxR1) (Rattus norvegicus, UniProt O89049); test: DTNB reduction assay with purified NADPH-reduced enzyme; type: biochemical
T2 sequence (O89049 1-499): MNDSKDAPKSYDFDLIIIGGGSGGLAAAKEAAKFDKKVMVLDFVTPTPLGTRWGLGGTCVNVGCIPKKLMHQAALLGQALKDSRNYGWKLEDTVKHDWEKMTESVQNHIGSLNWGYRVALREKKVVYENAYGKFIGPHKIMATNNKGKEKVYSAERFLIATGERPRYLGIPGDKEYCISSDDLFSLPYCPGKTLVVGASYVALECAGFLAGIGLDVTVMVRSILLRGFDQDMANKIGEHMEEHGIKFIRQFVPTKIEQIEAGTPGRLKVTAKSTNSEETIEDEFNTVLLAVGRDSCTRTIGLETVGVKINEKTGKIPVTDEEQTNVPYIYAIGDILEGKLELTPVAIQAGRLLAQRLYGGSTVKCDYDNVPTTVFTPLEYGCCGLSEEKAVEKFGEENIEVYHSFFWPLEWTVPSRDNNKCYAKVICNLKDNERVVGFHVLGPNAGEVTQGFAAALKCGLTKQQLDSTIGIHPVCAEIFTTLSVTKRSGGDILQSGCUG

## CC(=O)N=C1C=CC(=O)C=C1 [NAPQI, N-acetyl-p-benzoquinone imine]
[1]
  IC50: 17 µM
[2]
  IC50: 0.023 µM
